# Molecular target: Serotonin 2 receptors; 5-HT2a & 5-HT2c (Homo sapiens) (UniProt P28223+P28335)
# Assay: Selectivity ratio of binding affinity of 5-hydroxytryptamine 2A receptor to that of 5-hydroxytryptamine 2C receptor.
# Assay type: protein assay
# Sequence of Serotonin 2 receptors; 5-HT2a & 5-HT2c (Homo sapiens) (P28223 whole entry, looked up, one chain of several): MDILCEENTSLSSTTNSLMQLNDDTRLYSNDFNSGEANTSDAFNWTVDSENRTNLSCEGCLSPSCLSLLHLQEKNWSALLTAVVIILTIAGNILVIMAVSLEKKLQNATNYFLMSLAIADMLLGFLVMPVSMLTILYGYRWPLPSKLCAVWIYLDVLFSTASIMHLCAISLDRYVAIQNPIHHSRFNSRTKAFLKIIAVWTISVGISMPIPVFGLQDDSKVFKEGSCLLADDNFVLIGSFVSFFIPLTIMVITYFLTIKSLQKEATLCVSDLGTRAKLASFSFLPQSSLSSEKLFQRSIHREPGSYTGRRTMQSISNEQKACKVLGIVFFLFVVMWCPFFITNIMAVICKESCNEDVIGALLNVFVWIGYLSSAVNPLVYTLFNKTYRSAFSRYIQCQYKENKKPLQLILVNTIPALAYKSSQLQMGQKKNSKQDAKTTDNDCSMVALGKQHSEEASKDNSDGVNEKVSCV
row,Compound,Selectivity ratio
1,Cc1c2n(c3ccccc13)CCNCC2,1.8
2,Clc1c2n(c3ccccc13)CCNCC2,1.4

# Molecular target: 5-hydroxytryptamine receptor 2A (Homo sapiens, UniProt P28223)
# Assay: Binding affinity against 5-hydroxytryptamine 2A receptor using [125I]DOI radioligand.
# Sequence of 5-hydroxytryptamine receptor 2A (P28223 whole entry): as the sequence (P28223 whole entry, looked up, one chain of several) above
row,Compound,Ki [nM]
1,CCOc1ccccc1-c1ccc2c(c1)N1CCNCCC1C2 (stereo unspecified),1580
2,Cn1c2c(c3ccccc31)CCNCC2 [PNU-22394],19
3,CCN1CCc2cc3ccccc3n2CC1,30
4,CCOc1ccccc1-c1cc(Cl)cc2c1N1CCNCCC1C2 (stereo in doubt; 22a),218
5,"CCOc1ccccc1-c1cc(Cl)cc2c1N1CCNCCC1C2 (single isomer, unassigned; (+))",116
6,CCCN1CCc2cc3ccccc3n2CC1,56
7,CCOc1ccccc1-c1cc(Cl)cc2cc3n(c12)CCNCC3,32
8,"CCOc1ccccc1-c1cccc2c1N1CCNCCC1C2 (single isomer, unassigned; (+))",458
9,c1ccc2c(c1)CC1CCNCCN21 (stereo unspecified),805
10,CN1CCc2cc3ccccc3n2CC1,28
11,c1cc2c3c(c1)c1c(n3CCO2)CCNCC1,4.1
12,Cc1ccccc1-c1cccc2c1N1CCNCCC1C2 (stereo in doubt; (+)),191
13,CCOc1ccccc1-c1cccc2c1N1CCNCCC1C2 (stereo in doubt; 20a),440
14,CCOc1ccccc1-c1ccc2c(c1)CC1CCNCCN21 (stereo unspecified),> 10000
15,c1ccc2c3c([nH]c2c1)CCNCC3,10
16,"FC(F)(F)c1ccccc1-c1cccc2c1N1CCNCCC1C2 (single isomer, unassigned; (+))",107
17,Cc1ccccc1-c1cccc2c1N1CCNCCC1C2 (stereo in doubt; (-)),136
18,CCOc1ccccc1-c1cc(Cl)cc2c1N1CCNCCC1C2 (stereo in doubt),354
19,"CCOc1ccccc1-c1cccc2c1N1CCNCCC1C2 (single isomer, unassigned; (-))",980
20,"FC(F)(F)c1ccccc1-c1cccc2c1N1CCNCCC1C2 (single isomer, unassigned; (-))",45
21,Cc1c2n(c3ccccc13)CCNCC2,12
22,Clc1c2n(c3ccccc13)CCNCC2,6.5

# Molecular target: T1, 5-hydroxytryptamine receptor 2C (Homo sapiens) (UniProt P28335)
# T1 sequence (whole entry): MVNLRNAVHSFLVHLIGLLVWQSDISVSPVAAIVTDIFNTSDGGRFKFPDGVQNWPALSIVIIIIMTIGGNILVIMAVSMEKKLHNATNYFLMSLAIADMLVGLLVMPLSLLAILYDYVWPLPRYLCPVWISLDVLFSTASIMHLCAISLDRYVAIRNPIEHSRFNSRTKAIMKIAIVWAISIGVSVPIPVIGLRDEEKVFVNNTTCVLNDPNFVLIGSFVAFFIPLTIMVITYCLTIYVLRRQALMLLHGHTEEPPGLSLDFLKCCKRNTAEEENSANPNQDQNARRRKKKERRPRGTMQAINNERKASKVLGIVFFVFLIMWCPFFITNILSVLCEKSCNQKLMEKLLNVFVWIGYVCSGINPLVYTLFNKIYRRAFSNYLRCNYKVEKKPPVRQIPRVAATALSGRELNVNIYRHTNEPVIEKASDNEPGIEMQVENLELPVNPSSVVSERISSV
# Assay: Intrinsic efficacy against 5-hydroxytryptamine 2C receptor
row,Compound,Intrinsic efficacy [%]
1,Cn1c2c(c3ccccc31)CCNCC2 [PNU-22394],83
2,CCN1CCc2cc3ccccc3n2CC1,66
3,CN1CCc2cc3ccccc3n2CC1,49
4,c1cc2c3c(c1)c1c(n3CCO2)CCNCC1,105
5,c1ccc2c3c([nH]c2c1)CCNCC3,66

# System: Mus musculus
# Assay: Anxiolytic activity (latency to fight) in mice after administration (3.0 mg/kg) using shock-induced aggression assay
# Assay type: functional
row,Compound,Latency [s]
1,Cc1nnc2n1-c1ccc(Cl)cc1C(c1ccccc1)=NC2 [ALPRAZOLAM],35.2

# Molecular target: T2, 5-hydroxytryptamine receptor 2C (Homo sapiens, UniProt P28335)
# T2 sequence (P28335 whole entry): T1 sequence (whole entry)
# Assay: Binding affinity against 5-hydroxytryptamine 2C receptor using [125I]DOI radioligand.
row,Compound,Ki [nM]
1,CCOc1ccccc1-c1ccc2c(c1)N1CCNCCC1C2 (stereo unspecified),932
2,Cn1c2c(c3ccccc31)CCNCC2 [PNU-22394],19
3,CCN1CCc2cc3ccccc3n2CC1,38
4,CCOc1ccccc1-c1cc(Cl)cc2c1N1CCNCCC1C2 (stereo in doubt; 22a),54
5,"CCOc1ccccc1-c1cc(Cl)cc2c1N1CCNCCC1C2 (single isomer, unassigned; (+))",32
6,CCCN1CCc2cc3ccccc3n2CC1,64
7,CCOc1ccccc1-c1cc(Cl)cc2cc3n(c12)CCNCC3,112
8,"CCOc1ccccc1-c1cccc2c1N1CCNCCC1C2 (single isomer, unassigned; (+))",103
9,c1ccc2c(c1)CC1CCNCCN21 (stereo unspecified),721
10,CN1CCc2cc3ccccc3n2CC1,13
11,c1cc2c3c(c1)c1c(n3CCO2)CCNCC1,4.3
12,Cc1ccccc1-c1cccc2c1N1CCNCCC1C2 (stereo in doubt; (+)),30
13,CCOc1ccccc1-c1cccc2c1N1CCNCCC1C2 (stereo in doubt; 20a),110
14,CCOc1ccccc1-c1ccc2c(c1)CC1CCNCCN21 (stereo unspecified),4810
15,c1ccc2c3c([nH]c2c1)CCNCC3,6.1
16,"FC(F)(F)c1ccccc1-c1cccc2c1N1CCNCCC1C2 (single isomer, unassigned; (+))",59
17,Cc1ccccc1-c1cccc2c1N1CCNCCC1C2 (stereo in doubt; (-)),39
18,CCOc1ccccc1-c1cc(Cl)cc2c1N1CCNCCC1C2 (stereo in doubt),178
19,"CCOc1ccccc1-c1cccc2c1N1CCNCCC1C2 (single isomer, unassigned; (-))",196
20,"FC(F)(F)c1ccccc1-c1cccc2c1N1CCNCCC1C2 (single isomer, unassigned; (-))",14
21,Cc1c2n(c3ccccc13)CCNCC2,6.8
22,Clc1c2n(c3ccccc13)CCNCC2,4.7

# Molecular target: T2, 5-hydroxytryptamine receptor 2C
# Assay: Binding affinity of compound towards 5-hydroxytryptamine 2C receptor
row,Compound,Ki [nM]
1,C[C@H](N)Cn1ccc2ccc(F)cc21,4

# System: Mus musculus
# Assay: Ataxia (time on rotaing rod) in mice after administration (0.3 mg/kg) using standard Rotarod assay
# Assay type: functional
row,Compound,Latency [s]
1,Cc1nnc2n1-c1ccc(Cl)cc1C(c1ccccc1)=NC2 [ALPRAZOLAM],74.2

# System: Mus musculus
# Assay: Anxiolytic activity (latency to fight) in mice after administration (0.3 mg/kg) using shock-induced aggression assay
# Assay type: functional
row,Compound,Latency [s]
1,Cc1nnc2n1-c1ccc(Cl)cc1C(c1ccccc1)=NC2 [ALPRAZOLAM],11.9

# System: Mus musculus
# Assay: Ataxia (time on rotaing rod) in mice after administration (3 mg/kg) using standard Rotarod assay
# Assay type: functional
row,Compound,Latency [s]
1,Cc1nnc2n1-c1ccc(Cl)cc1C(c1ccccc1)=NC2 [ALPRAZOLAM],14.5

# Source: ChEMBL document CHEMBL1136110, “2,3,4,5-tetrahydro- and 2,3,4,5,11,11a-hexahydro-1H-[1,4]diazepino[1,7-a]indoles: new templates for 5-HT(2C) agonists” (Bioorg Med Chem Lett, 2003)
